The target in one experiment is T1, NEP (Rattus norvegicus, UniProt P07861).
T1 sequence (P07861 1-750): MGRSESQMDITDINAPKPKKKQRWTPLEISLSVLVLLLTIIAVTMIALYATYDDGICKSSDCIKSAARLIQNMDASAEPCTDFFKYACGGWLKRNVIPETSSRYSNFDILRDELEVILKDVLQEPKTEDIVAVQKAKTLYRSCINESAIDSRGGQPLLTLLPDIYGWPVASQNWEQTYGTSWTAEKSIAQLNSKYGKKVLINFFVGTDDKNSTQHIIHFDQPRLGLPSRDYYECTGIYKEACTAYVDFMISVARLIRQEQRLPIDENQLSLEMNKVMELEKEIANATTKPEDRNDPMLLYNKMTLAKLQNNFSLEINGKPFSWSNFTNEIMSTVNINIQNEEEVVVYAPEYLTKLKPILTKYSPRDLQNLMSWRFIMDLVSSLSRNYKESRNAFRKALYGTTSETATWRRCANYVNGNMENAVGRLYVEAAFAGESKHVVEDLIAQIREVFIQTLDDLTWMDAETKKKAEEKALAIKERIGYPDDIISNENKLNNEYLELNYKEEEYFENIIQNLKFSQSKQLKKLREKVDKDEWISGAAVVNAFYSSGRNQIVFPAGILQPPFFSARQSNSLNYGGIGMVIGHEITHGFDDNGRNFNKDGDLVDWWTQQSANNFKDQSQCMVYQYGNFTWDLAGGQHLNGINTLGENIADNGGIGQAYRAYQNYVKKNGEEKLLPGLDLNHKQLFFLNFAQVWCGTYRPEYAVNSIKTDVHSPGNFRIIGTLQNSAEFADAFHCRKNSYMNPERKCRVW
Briefly: Ex vivo NEP-inhibitory activity in kidney homogenates of treated SHR (GAAP substrate). On the set-up: After the removal of the kidneys from SHR, the renal tissue was homogenized; from tissue; host or cells: kidney homogenate of spontaneously hypertensive rats (SHR); species or system spontaneously hypertensive rats (SHR). To be noted: oral 30 µmoles/kg; for inhibition at 30 µmol/kg: rat, SHR kidneys. The protocol:
(§1) The ex-vivo ACE/NEP-inhibitory activity, in particular, was determined by evaluating the enzymatic activity in tissue homogenates (lung and kidney for ACE and NEP activity, respectively) from spontaneously hypertensive rats (SHR) treated with the tested compounds by intravenous or oral route.
The ex vivo NEP-inhibitory activity was evaluated according to the procedure reported in the literature by M. Orlowsky et al., in Biochemistry 1981, 20, 4942-4950.
The inhibitory activity of the compounds of formula I was evaluated in kidneys of spontaneously hypertensive rats (SHR), 5 minutes after i.v. injection (0.6 and 21 µmoles/kg) and 30 minutes, 60 minutes and 4 hours after oral administration (30 µmoles/kg) of the tested compounds.
After the removal of the kidneys from SHR, the renal tissue was homogenized and incubated for 15 minutes at 37°C in the presence of Glutaryl-Ala-Ala-Phe-2-naphthylamide (GAAP), as a substrate, and aminopeptidase M at pH 7.6.
The reaction was stopped by adding an aqueous solution at 10% of trichloroacetic acid.
The released 2-naphthylamine was determined by adding fast garnet dye (2 ml).
Enzyme reaction rates were determined by measuring the increase in the optical density at 524 nm (OD524) with respect to a standard obtained with 2-naphthylamine complexed with fast garnet.
The NEP-inhibitory activity of the tested compounds was expressed as percentage of NEP-inhibition in SHR kidneys.

The target of a further experiment is T2, ACE (Rattus norvegicus, UniProt P47820).
T2 construct: After the removal of the lungs from SHR, the lung tissue was homogenized; from tissue; host or cells: lung homogenate of spontaneously hypertensive rats (SHR)
T2 sequence (P47820 36-1313): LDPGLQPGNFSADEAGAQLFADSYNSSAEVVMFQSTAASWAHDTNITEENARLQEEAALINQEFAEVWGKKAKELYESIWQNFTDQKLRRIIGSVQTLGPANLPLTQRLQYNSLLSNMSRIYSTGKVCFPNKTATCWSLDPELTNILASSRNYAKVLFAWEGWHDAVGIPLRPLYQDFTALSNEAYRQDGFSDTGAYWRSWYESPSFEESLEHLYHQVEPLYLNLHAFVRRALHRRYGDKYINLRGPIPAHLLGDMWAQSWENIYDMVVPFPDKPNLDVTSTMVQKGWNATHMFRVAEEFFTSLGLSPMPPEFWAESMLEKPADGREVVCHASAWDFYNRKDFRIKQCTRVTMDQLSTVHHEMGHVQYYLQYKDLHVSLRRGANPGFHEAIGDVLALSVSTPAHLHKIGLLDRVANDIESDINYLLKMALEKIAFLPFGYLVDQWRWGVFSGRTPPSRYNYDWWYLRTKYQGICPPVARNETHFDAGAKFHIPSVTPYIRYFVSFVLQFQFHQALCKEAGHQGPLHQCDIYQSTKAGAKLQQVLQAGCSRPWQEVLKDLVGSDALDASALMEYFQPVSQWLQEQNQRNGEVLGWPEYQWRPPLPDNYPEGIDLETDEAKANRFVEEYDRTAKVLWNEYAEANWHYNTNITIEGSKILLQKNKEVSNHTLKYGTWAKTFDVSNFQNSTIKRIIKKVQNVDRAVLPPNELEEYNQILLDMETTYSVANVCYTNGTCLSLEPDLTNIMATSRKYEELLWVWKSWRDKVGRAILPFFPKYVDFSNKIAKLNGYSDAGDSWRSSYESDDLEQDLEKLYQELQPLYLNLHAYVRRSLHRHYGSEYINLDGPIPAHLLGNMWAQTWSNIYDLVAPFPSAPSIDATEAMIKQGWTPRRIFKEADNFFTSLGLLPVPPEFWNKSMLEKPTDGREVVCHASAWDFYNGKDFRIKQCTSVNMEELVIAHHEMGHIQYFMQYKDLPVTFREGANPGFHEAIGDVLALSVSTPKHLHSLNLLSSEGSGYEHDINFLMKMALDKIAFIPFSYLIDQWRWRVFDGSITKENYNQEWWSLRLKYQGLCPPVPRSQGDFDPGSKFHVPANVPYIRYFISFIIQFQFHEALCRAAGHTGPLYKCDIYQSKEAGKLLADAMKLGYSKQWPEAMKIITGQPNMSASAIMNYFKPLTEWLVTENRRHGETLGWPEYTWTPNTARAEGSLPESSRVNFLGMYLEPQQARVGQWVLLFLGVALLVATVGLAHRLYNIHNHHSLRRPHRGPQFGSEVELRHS
Put plainly: Ex vivo ACE-inhibitory activity in lung homogenates of treated SHR (radiometric, [3H]Hyp-Gly-Gly). To be noted: SHR lungs, oral 30 µmoles/kg. On the set-up: species or system spontaneously hypertensive rats (SHR). The protocol:
as §1
The ex vivo ACE-inhibitory activity was evaluated by using a radiometric assay method, as reported in the literature by J. W. Ryan et al. in Biochem. J. (1977), 167, 501-504.
The inhibitory activity of the compounds of formula I was evaluated in lungs of spontaneously hypertensive rats (SHR), 5 minutes after i.v. injection (0.6 and 21 µmoles/kg) and 30 minutes, 60 minutes and 4 hours after oral administration (30 µmoles/kg) of the tested compounds.
After the removal of the lungs from SHR, the lung tissue was homogenized and incubated for 2 hours at 37°C in the presence of [^3H]Hyp-Gly-Gly, as a substrate.
The reaction was stopped by adding hydrochloric acid.
The released radiolabelled hyppuric acid was extracted with ethyl acetate and counted by liquid scintillation spectrometry, according to conventional methods.
The ACE-inhibitory activity of the tested compounds was expressed as percentage of ACE-inhibition in SHR lungs.

Where [1] appears, read: 30 minutes after administration, read-out: NEP-inhibition (kidneys) 30 minutes.
Setting [2] is: 30 minutes after administration, read-out: ACE-inhibition (lungs) 30 minutes.
Setting [3] is: 4 hours after administration, read-out: ACE-inhibition (lungs) 4 hours.

Read-outs that look alike come from different tables or passages of the source.

Broadly, the inhibition is the share of the control response that was lost under treatment.

Take `O=C(N[C@@H](Cc1ccccc1)C(=O)O)C(CS)Cc1ccc2c(c1)OCO2` (stereo partly drawn) [Compound R-1, N-[3-mercapto-2-(3,4-methylenedioxyphenyl)methyl-propionyl]-(S)-phenylalanine]: the “NEP-inhibition (kidneys) 4 hours” value on NEP (4 hours after administration) is “not active”. The inhibition at 30 µmol/kg at NEP (setting [1]) stood at 5%; on ACE (setting [2]) it was 25%; on ACE (setting [3]) it was 20%.

Consider `O=C(N[C@@H](Cc1ccc(O)cc1)C(=O)O)C(CS)Cc1ccc2c(c1)OCO2` (stereo partly drawn) [Compound R-2, N-[3-mercapto-2-(3,4-methylenedioxyphenyl)methyl-propionyl)-(S)-tyrosine], for which the “NEP-inhibition (kidneys) 4 hours” value on NEP (4 hours after administration) was “not active”. The inhibition at 30 µmol/kg on NEP (setting [1]) came to 30%; at ACE (setting [2]) it was 30%; at ACE (setting [3]), 25%.

For `CC(CS)C(=O)N[C@@H](Cc1ccc(O)cc1)C(=O)O` (stereo partly drawn) [Compound R-3, N-(3-mercapto-2-methylpropanoyl)-L-tyrosine], the inhibition at 30 µmol/kg at NEP (setting [1]) was determined as 10%; at NEP (4 hours after administration, read-out: NEP-inhibition (kidneys) 4 hours) it was 5%; on ACE (setting [2]), 25%; at ACE (setting [3]), 20%.

Take `CC(CS)C(=O)N[C@@H](Cc1c[nH]c2ccccc12)C(=O)O` (stereo partly drawn) [Compound R-4, N-(3-mercapto-2-methylpropanoyl)-L-triptophan]: at NEP (30 minutes after administration), the “NEP-inhibition (kidneys) 30 minutes” value is listed as “not active”. Moreover, on NEP (4 hours after administration), the “NEP-inhibition (kidneys) 4 hours” value is “not active”. Besides, the inhibition at 30 µmol/kg at ACE (setting [2]) is 25%; at ACE (setting [3]), 10%.
